In the assay the test system is 3D7 P. falciparum strain. The experiment in a line: P. falciparum 3D7 parasite proliferation assay (SYBR Green). The class given is cell-based. As to conditions: Plasmodium falciparum, Erythrocyte; 3D7 P. falciparum infected human erythrocytes, 72 hours, SYBR Green fluorescence; read-out: Pf3D7 Activity. The procedure:
The following assay illustrates the invention without in any way limiting the scope of the invention. This parasite proliferation assay measures the increase in parasite DNA content using a DNA intercalating dye, SYBR Green®. 3D7 P. falciparum strain is grown in complete culturing media until parasitemia reaches 3% to 8% with O+ human erythrocytes. 20 μl of screening media is dispensed into 384 well assay plates. 50 nl of compounds of the invention (in DMSO), including antimalarial controls (mefloquine, pyrimethamine and artemisinin), are then transferred into the assay plates, as well as DMSO alone to serve as a negative control for inhibition. Then 30 μl of a suspension of a 3D7 P. falciparum infected erythrocytes in screening media is dispensed into the assay plates such that the final hematocrit is 2.5% with a final parasitemia of 0.3%. The plates are placed in a 37° C. incubator for 72 hours in a low oxygen environment containing 93% N2, 4% CO2, and 3% O2 gas mixture. 10 μl of lysis buffer (saponin, triton-X, EDTA) containing a 10× solution of SYBR Green […] in RPMI media is dispensed into the plates. The plates are lidded and kept at room temperature overnight for the lysis of the infected red blood cells. The fluorescence intensity is measured (excitation […], emission 530 nm) using the Envision™ system (Perkin Elmer). The percentage inhibition of 50%, EC50, is calculated for each compound.

`Cc1c(-c2cncc(C(=O)N[C@@H]3CCCC[C@@H]3N)n2)[nH]c2ccccc12` (racemic) [Example 98, (rac)-N-((1r,2s)-2-aminocyclohexyl)-6-(3-methyl-1H-indol-2-yl)pyrazine-2-carboxamide]: the EC50 is greater than 100 nM. Regarding `Cc1c(-c2cncc(C(=O)N[C@H]3COC[C@H]3N)n2)[nH]c2ccccc12` (racemic) [Example 99, (rac)-N-((3r,4s)-4-aminotetrahydrofuran-3-yl)-6-(3-methyl-1H-indol-2-yl)pyrazine-2-carboxamide], the EC50 was greater than 100 nM. Then `Cc1c(-c2cncc(C(=O)N[C@@H]3CCCC[C@H]3N)n2)[nH]c2ccccc12` (racemic) [Example 101, (rac)-N-((1r,2r)-2-aminocyclohexyl)-6-(3-methyl-1H-indol-2-yl)pyrazine-2-carboxamide], with greater than 100 nM; and `Cc1c(-c2cncc(C(=O)NCC(C)(C)N)n2)[nH]c2cc(Cl)c(F)cc12` [Example 1, N-(2-amino-2-methylpropyl)-6-(6-chloro-5-fluoro-3-methyl-1H-indol-2-yl)pyrazine-2-carboxamide], with less than 10 nM; and `CC(C)(N)CNC(=O)c1cncc(-c2cc3cc(OC(F)(F)F)ccc3[nH]2)n1` [Example 2, N-(2-Amino-2-methylpropyl)-6-(5-(trifluoromethoxy)-1H-indol-2-yl)pyrazine-2-carboxamide], with 10 to 100 nM. As for `Cc1c(-c2cncc(C(=O)NCC(C)(C)N)n2)[nH]c2ccc(S(F)(F)(F)(F)F)cc12` [Example 3, N-(2-amino-2-methylpropyl)-6-(3-methyl-5-(pentafluoro-λ^6-sulfaneyl)-1H-indol-2-yl)pyrazine-2-carboxamide], the EC50 was less than 10 nM. `Cc1c(-c2cncc(C(=O)NCC(C)(C)N)n2)[nH]c2c(F)c(Cl)ccc12` [Example 4, N-(2-amino-2-methylpropyl)-6-(6-chloro-7-fluoro-3-methyl-1H-indol-2-yl)pyrazine-2-carboxamide]: the EC50 is less than 10 nM. Then `Cc1c(-c2cncc(C(=O)NCC(C)(C)N)n2)[nH]c2ccc(OC(F)(F)F)cc12` [Example 5, N-(2-amino-2-methylpropyl)-6-(3-methyl-5-(trifluoromethoxy)-1H-indol-2-yl)pyrazine-2-carboxamide], with less than 10 nM. Then `Cc1c(-c2cncc(C(=O)NCC(C)(C)N)n2)[nH]c2c(F)cc(Cl)cc12` [Example 6, N-(2-amino-2-methylpropyl)-6-(5-chloro-7-fluoro-3-methyl-1H-indol-2-yl)pyrazine-2-carboxamide], with less than 10 nM. Regarding `Cc1c(-c2cncc(C(=O)NCC(C)(C)N)n2)[nH]c2cc(Cl)ccc12` [Example 7, N-(2-amino-2-methylpropyl)-6-(6-chloro-3-methyl-1H-indol-2-yl)pyrazine-2-carboxamide], the EC50 is less than 10 nM. Then `Cc1c(-c2cncc(C(=O)NCC(C)(C)N)n2)[nH]c2cc(OC(F)(F)F)ccc12` [Example 8, N-(2-amino-2-methylpropyl)-6-(3-methyl-6-(trifluoromethoxy)-1H-indol-2-yl)pyrazine-2-carboxamide], with less than 10 nM. Next, `Cc1c(-c2cncc(C(=O)NCC(C)(C)N)n2)[nH]c2cc(S(F)(F)(F)(F)F)ccc12` [Example 9, N-(2-amino-2-methylpropyl)-6-(3-methyl-6-(pentafluoro-[…]^6-sulfaneyl)-1H-indol-2-yl)pyrazine-2-carboxamide]: less than 10 nM; `Cc1c(-c2cncc(C(=O)NCC(C)(C)N)n2)[nH]c2cc(F)c(Cl)cc12` [Example 10, N-(2-amino-2-methylpropyl)-6-(5-chloro-6-fluoro-3-methyl-1H-indol-2-yl)pyrazine-2-carboxamide]: less than 10 nM; `CC(C)(N)CNC(=O)c1cncc(-c2cc3ccc(Cl)c(F)c3[nH]2)n1` [Example 11, N-(2-amino-2-methylpropyl)-6-(6-chloro-7-fluoro-1H-indol-2-yl)pyrazine-2-carboxamide]: 10 to 100 nM. Turning to `Cc1c(-c2cncc(C(=O)NCC(C)(C)N)n2)[nH]c2ccc(Cl)cc12` [Example 12, N-(2-amino-2-methylpropyl)-6-(5-chloro-3-methyl-1H-indol-2-yl)pyrazine-2-carboxamide], the EC50 is 10 to 100 nM.

With `CC(C)(N)CNC(=O)c1cncc(-c2cc3cc(Cl)cc(F)c3[nH]2)n1` [Example 13, N-(2-amino-2-methylpropyl)-6-(5-chloro-7-fluoro-1H-indol-2-yl)pyrazine-2-carboxamide], the EC50 lay within 10 to 100 nM. Regarding `CC(C)(N)CNC(=O)c1cncc(-c2cc3cc(F)c(Cl)cc3[nH]2)n1` [Example 14, N-(2-amino-2-methylpropyl)-6-(6-chloro-5-fluoro-1H-indol-2-yl)pyrazine-2-carboxamide], the EC50 lay within 10 to 100 nM. Next, `Cc1ccc2[nH]c(-c3cncc(C(=O)NCC(C)(C)N)n3)c(C)c2c1` [Example 15, N-(2-amino-2-methylpropyl)-6-(3,5-dimethyl-1H-indol-2-yl)pyrazine-2-carboxamide]: 10 to 100 nM; `CC(C)c1c(-c2cncc(C(=O)NCC(C)(C)N)n2)[nH]c2ccc(OC(F)(F)F)cc12` [Example 16, N-(2-amino-2-methylpropyl)-6-(3-isopropyl-5-(trifluoromethoxy)-1H-indol-2-yl)pyrazine-2-carboxamide]: 10 to 100 nM. `CC(C)(N)CNC(=O)c1cncc(-c2cc3cc(Cl)c(F)cc3[nH]2)n1` [Example 17, N-(2-amino-2-methylpropyl)-6-(5-chloro-6-fluoro-1H-indol-2-yl)pyrazine-2-carboxamide]: the EC50 was in the range of 10 to 100 nM. Then `CC(C)(N)CNC(=O)c1cncc(-c2cc3cc(C(F)(F)F)ccc3[nH]2)n1` [Example 18, N-(2-amino-2-methylpropyl)-6-(5-(trifluoromethyl)-1H-indol-2-yl)pyrazine-2-carboxamide], with 10 to 100 nM. Next, `CC(C)(N)CNC(=O)c1cncc(-c2cc3cc(Cl)ccc3[nH]2)n1` [Example 19, N-(2-amino-2-methylpropyl)-6-(5-chloro-1H-indol-2-yl)pyrazine-2-carboxamide]: 10 to 100 nM.

Turning to `CC(C)(N)CNC(=O)c1cncc(-c2cc3cc(F)c(F)cc3[nH]2)n1` [Example 20, N-(2-amino-2-methylpropyl)-6-(5,6-difluoro-1H-indol-2-yl)pyrazine-2-carboxamide], the EC50 lay within 10 to 100 nM.

`CC(C)(N)CNC(=O)c1cncc(-c2cc3ccc(F)cc3[nH]2)n1` [Example 21, N-(2-amino-2-methylpropyl)-6-(6-fluoro-1H-indol-2-yl)pyrazine-2-carboxamide]: the EC50 is 10 to 100 nM. Turning to `CC(C)(N)CNC(=O)c1cncc(-c2cc3cc(OCc4ccccc4)ccc3[nH]2)n1` [Example 22, N-(2-amino-2-methylpropyl)-6-(5-(benzyloxy)-1H-indol-2-yl)pyrazine-2-carboxamide], the EC50 lay in the range of 10 to 100 nM. Then `Cc1ccc2cc(-c3cncc(C(=O)NCC(C)(C)N)n3)[nH]c2c1` [Example 23, N-(2-amino-2-methylpropyl)-6-(6-methyl-1H-indol-2-yl)pyrazine-2-carboxamide], with 10 to 100 nM. Then `CC(C)(N)CNC(=O)c1cncc(-c2cc3cc(F)cc(F)c3[nH]2)n1` [Example 24, N-(2-amino-2-methylpropyl)-6-(5,7-difluoro-1H-indol-2-yl)pyrazine-2-carboxamide], with 10 to 100 nM.

Regarding `CC(C)(N)CNC(=O)c1cncc(-c2cc3cccc(F)c3[nH]2)n1` [Example 25, N-(2-amino-2-methylpropyl)-6-(7-fluoro-1H-indol-2-yl)pyrazine-2-carboxamide], the EC50 was in the range of 10 to 100 nM. Then `Cc1ccc2[nH]c(-c3cncc(C(=O)NCC(C)(C)N)n3)cc2c1` [Example 26, N-(2-amino-2-methylpropyl)-6-(5-methyl-1H-indol-2-yl)pyrazine-2-carboxamide], with 10 to 100 nM. Next, `CC(C)(N)CNC(=O)c1cncc(-c2cc3cc(F)ccc3[nH]2)n1` [Example 27, N-(2-amino-2-methylpropyl)-6-(5-fluoro-1H-indol-2-yl)pyrazine-2-carboxamide]: 10 to 100 nM. As to `CC(C)(N)CNC(=O)c1cncc(-c2cc3cccc(Cl)c3[nH]2)n1` [Example 28, N-(2-amino-2-methylpropyl)-6-(7-chloro-1H-indol-2-yl)pyrazine-2-carboxamide], the EC50 lay within 10 to 100 nM.

With `COC(=O)c1ccc2cc(-c3cncc(C(=O)NCC(C)(C)N)n3)[nH]c2c1` [Example 29, Methyl 2-(6-((2-amino-2-methylpropyl)carbamoyl)pyrazin-2-yl)-1H-indole-6-carboxylate], the EC50 was 10 to 100 nM. As for `COc1cccc2[nH]c(-c3cncc(C(=O)NCC(C)(C)N)n3)cc12` [Example 30, N-(2-amino-2-methylpropyl)-6-(4-methoxy-1H-indol-2-yl)pyrazine-2-carboxamide], the EC50 is greater than 100 nM. As for `COc1ccc2cc(-c3cncc(C(=O)NCC(C)(C)N)n3)[nH]c2c1` [Example 31, N-(2-amino-2-methylpropyl)-6-(6-methoxy-1H-indol-2-yl)pyrazine-2-carboxamide], the EC50 was greater than 100 nM. Then `COc1ccc2[nH]c(-c3cncc(C(=O)NCC(C)(C)N)n3)cc2c1` [Example 32, N-(2-amino-2-methylpropyl)-6-(5-methoxy-1H-indol-2-yl)pyrazine-2-carboxamide], with greater than 100 nM.

For the origin of these results see US20250197376A1, “PYRAZINE AMIDE DERIVATIVES” (Novartis AG, priority 2022, published 2025).
